Experimental data as given in US8158789B2, “Arginine derivatives with NP-I antagonistic activity” (Ark Therapeutics Group Ltd., priority 2006, dated 2012).

What follows are compounds tested against T1, neuropilin-1 (NP-1) (Homo sapiens, UniProt O14786) (assay: 125I-VEGF-A165 binding). Conditions: assay not given; 125I-VEGF-A165 binding is the only concentration-response binding method described.
T1 construct: expressed in transfected cells; host or cells: porcine aortic endothelial cells (PAE/NP-1), hygromycin B selection
T1 sequence (O14786 22-923): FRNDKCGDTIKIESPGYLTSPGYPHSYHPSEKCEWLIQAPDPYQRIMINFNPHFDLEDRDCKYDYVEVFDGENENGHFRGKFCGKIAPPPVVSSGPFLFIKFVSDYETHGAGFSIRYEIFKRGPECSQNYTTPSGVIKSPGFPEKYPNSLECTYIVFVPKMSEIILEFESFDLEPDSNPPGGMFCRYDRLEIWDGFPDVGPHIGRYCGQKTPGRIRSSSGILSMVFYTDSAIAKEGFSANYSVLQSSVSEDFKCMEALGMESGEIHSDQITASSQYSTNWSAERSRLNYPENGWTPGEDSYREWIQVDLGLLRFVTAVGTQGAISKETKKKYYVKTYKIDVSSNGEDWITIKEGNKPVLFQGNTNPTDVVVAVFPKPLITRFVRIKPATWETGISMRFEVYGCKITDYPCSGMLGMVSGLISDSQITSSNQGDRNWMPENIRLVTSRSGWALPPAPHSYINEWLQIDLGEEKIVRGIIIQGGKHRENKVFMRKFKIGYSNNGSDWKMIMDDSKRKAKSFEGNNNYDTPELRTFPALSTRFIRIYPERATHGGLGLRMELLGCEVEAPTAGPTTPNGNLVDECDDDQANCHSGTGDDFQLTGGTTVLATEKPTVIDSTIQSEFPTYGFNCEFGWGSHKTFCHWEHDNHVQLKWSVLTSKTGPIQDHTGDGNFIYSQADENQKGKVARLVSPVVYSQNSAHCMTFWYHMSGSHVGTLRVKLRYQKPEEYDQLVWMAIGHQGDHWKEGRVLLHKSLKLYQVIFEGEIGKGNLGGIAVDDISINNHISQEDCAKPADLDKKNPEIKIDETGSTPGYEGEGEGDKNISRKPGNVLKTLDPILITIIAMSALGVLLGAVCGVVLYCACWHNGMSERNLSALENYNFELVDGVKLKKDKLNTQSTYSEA
Experimental: (§1) Porcine aortic endothelial cells expressing neuropilin-1 (PAE/NP-1) were cultured in Ham's F12 medium containing 10% fetal bovine serum (FBS) and 25 μg/ml hygromycin B. PAE cells expressing KDR (PAE/KDR) were grown in Ham's F12 medium containing 10% FBS and 250 μg/ml […] G418. Human carcinoma cell lines (DU145, A549 and ACHN) were grown in RPMI 1640 medium containing 10% FBS and L-glutamine.
Confluent cells in 24-well plates were washed twice with phosphate-buffered saline (PBS). At 4° C. various concentrations of peptides or peptidomimetics diluted in binding medium (Dulbecco's modified Eagle's medium, 25 mM HEPES pH 7.3 containing 0.1% BSA) were added, followed by addition of 0.1 nM of ^125I-VEGF-A165 (1200-1800 Ci/mmol, GE Healthcare). After 2 h of incubation at 4° C., the medium was aspirated and washed 4 times with cold PBS. The cells were lysed with 0.25 M NaOH, 0.5% SDS solution, and the bound radioactivity of the lysates was measured in a γ counter. Non-specific binding was determined in the presence of 100-fold excess unlabelled VEGF-A165.

Question: How did the IC50 turn out when `N=C(N)NCCC[C@H](NC(=O)c1sccc1NS(=O)(=O)c1cccc(CCc2cccnc2)c1)C(=O)O` [EG00323, (S)-5-Guanidino-2-({3-[3-(2-pyridin-3-yl-ethyl)-benzenesulfonylamino]-thiophene-2-carbonyl}-amino)-pentanoic acid] was run?
Answer: The IC50 was under 20 µM.

Question: For `Cc1nc(CNc2cccc(S(=O)(=O)Nc3ccsc3C(=O)N[C@@H](CCCNC(=N)N)C(=O)O)c2)c(C)o1` [EG00332, (S)-2-[(3-{3-[(2,5-Dimethyl-oxazol-4-ylmethyl)-amino]-benzenesulfonylamino}-thiophene-2-carbonyl)-amino]-5-guanidino-pentanoic acid], which IC50 is on record?
Answer: Its IC50 is under 20 µM.

Question: With `Cn1nc(CNc2cccc(S(=O)(=O)Nc3ccsc3C(=O)N[C@@H](CCCNC(=N)N)C(=O)O)c2)c2ccccc21` [EG00319, (S)-5-Guanidino-2-[(3-{3-[(1-methyl-1H-indazol-3-ylmethyl)-amino]-benzenesulfonylamino}-thiophene-2-carbonyl)-amino]-pentanoic acid] as the compound, how does the IC50 read?
Answer: The IC50 was under 20 µM.

Question: Which IC50 does the source give for `N=C(N)NCCC[C@H](NC(=O)c1sccc1NS(=O)(=O)c1cc2ccccc2o1)C(=O)O` [EG00287, (S)-2-{[3-(Benzofuran-2-sulfonylamino)-thiophene-2-carbonyl]-amino}-5-guanidino-pentanoic acid] here?
Answer: The IC50 was under 20 µM.

Question: How did the IC50 turn out when `N=C(N)NCCC[C@H](NC(=O)c1sccc1NS(=O)(=O)c1ccccc1N)C(=O)O` [EG00225, (S)-2-{[3-(2-Amino-benzenesulfonylamino)-thiophene-2-carbonyl]-amino}-5-guanidino-pentanoic acid] was run?
Answer: Its IC50 is under 20 µM.

Question: For `Cc1nn(-c2ccccc2)c(Cl)c1CNc1cccc(S(=O)(=O)Nc2ccsc2C(=O)N[C@@H](CCCNC(=N)N)C(=O)O)c1` [EG00318, (S)-2-[(3-{3-[(5-Chloro-3-methyl-1-phenyl-1H-pyrazol-4-ylmethyl)-amino]-benzenesulfonylamino]-thiophene-2-carbonyl)-amino]-5-guanidino-pentanoic acid], which IC50 is on record?
Answer: The IC50 was under 20 µM.

Question: How did the IC50 turn out when `Cc1noc(C)c1-c1cccc(S(=O)(=O)Nc2ccsc2C(=O)N[C@@H](CCCNC(=N)N)C(=O)O)c1` [EG00350, (S)-2-({3-[3-(3,5-Dimethyl-isoxazol-4-yl)-benzenesulfonylamino]-thiophene-2-carbonyl}-amino)-5-guanidino-pentanoic acid] was run?
Answer: The IC50 was under 20 µM.

Question: For `N=C(N)NC(=O)CC[C@H](NC(=O)c1sccc1NS(=O)(=O)c1ccccc1[N+](=O)[O-])C(=O)O` [EG00285, (S)-5-Guanidino-2-{[3-(2-nitro-benzenesulfonylamino)-thiophene-2-carbonyl]-amino}-5-oxo-pentanoic acid], which IC50 is on record?
Answer: Its IC50 is under 20 µM.

Question: `N=C(N)NCCC[C@H](NC(=O)c1sccc1NS(=O)(=O)c1cccc2nonc12)C(=O)O` [EG00288, (S)-2-{[3-(Benzo[1,2,5]oxadiazole-4-sulfonylamino)-thiophene-2-carbonyl]-amino}-5-guanidino-pentanoic acid] was tested. Which IC50 did it give?
Answer: The IC50 was under 20 µM.

Question: With `Cc1ccc2nsnc2c1S(=O)(=O)Nc1ccsc1C(=O)N[C@@H](CCCNC(=N)N)C(=O)O` [EG00264, (S)-2-{[3-(5-Methyl-benzo[1,2,5]thiadiazole-5-methyl-4-sulfonylamino)-thiophene-2-carbonyl]-amino}-5-guanidino-pentanoic acid] as the compound, how does the IC50 read?
Answer: The IC50 was under 20 µM.

Question: `N=C(N)NCCC[C@H](NC(=O)c1sccc1NS(=O)(=O)c1ccc(N)cc1)C(=O)O` [EG00144, (S)-2-{[3-(4-Amino-benzenesulfonylamino)-thiophene-2-carbonyl]-amino}-5-guanidino-pentanoic acid] was tested. Which IC50 did it give?
Answer: Its IC50 is under 20 µM.

Question: Which IC50 does the source give for `N=C(N)NCCC[C@H](NC(=O)c1sccc1NS(=O)(=O)c1ccccc1[N+](=O)[O-])C(=O)O` [EG00224, (S)-5-Guanidino-2-{[3-(2-nitro-benzenesulfonylamino)-thiophene-2-carbonyl]-amino}-pentanoic acid] here?
Answer: The IC50 was under 20 µM.

Question: With `Cc1cc(CNc2cccc(S(=O)(=O)Nc3ccsc3C(=O)N[C@@H](CCCNC(=N)N)C(=O)O)c2)n(C)n1` [EG00316, (S)-2-[(3-{3-[(2,5-Dimethyl-2H-pyrazol-3-ylmethyl)-amino]-benzenesulfonyl-amino}-thiophene-2-carbonyl)-amino]-5-guanidino-pentanoic acid] as the compound, how does the IC50 read?
Answer: Its IC50 is under 20 µM.

Question: How did the IC50 turn out when `N=C(N)NCCC[C@H](NC(=O)c1sccc1NS(=O)(=O)c1cccc(CCCN)c1)C(=O)O` [EG00369, (S)-2-({3-[3-(3-Amino-propyl)-benzenesulfonylamino]-thiophene-2-carbonyl}-amino)-5-guanidino-pentanoic acid] was run?
Answer: Its IC50 is under 20 µM.

Question: Which IC50 does the source give for `CC(=O)Nc1ccc(S(=O)(=O)Nc2ccsc2C(=O)N[C@@H](CCCNC(=N)N)C(=O)O)cc1` [EG00203, (S)-2-{[3-(4-Acetylamino-benzenesulfonylamino)-thiophene-2-carbonyl]-amino}-5-guanidino-pentanoic acid] here?
Answer: The IC50 was under 20 µM.

Question: `CN1CCOc2cc(-c3cc4c(c(S(=O)(=O)Nc5ccsc5C(=O)N[C@@H](CCCNC(=N)N)C(=O)O)c3)OCC4)cnc21` [EG00475, (S)-5-Guanidino-2-({3-[5-(4-methyl-3,4-dihydro-2H-pyrido[3,2-b][1,4]oxazin-7-yl)-2,3-dihydro-benzofuran-7-sulfonylamino]-thiophene-2-carbonyl}-amino)-pentanoic acid] was tested. Which IC50 did it give?
Answer: The IC50 was under 20 µM.

Question: For `N=C(N)NCCC[C@H](NC(=O)c1sccc1NS(=O)(=O)c1cc(Br)cc2c1OCC2)C(=O)O` [EG00299, (S)-2-{[3-(5-Bromo-2,3-dihydro-benzofuran-7-sulfonylamino)-thiophene-2-carbonyl]-amino}-5-guanidino-pentanoic acid], which IC50 is on record?
Answer: The IC50 was under 20 µM.

Question: With `Cc1nn(C)c(Cl)c1CNc1cccc(S(=O)(=O)Nc2ccsc2C(=O)N[C@@H](CCCNC(=N)N)C(=O)O)c1` [EG00280, (S)-2-[(3-{3-[(5-Chloro-1,3-dimethyl-1H-pyrazol-4-ylmethyl)-amino]-benzenesulfonylamino}-thiophene-2-carbonyl)-amino]-5-guanidino-pentanoic acid] as the compound, how does the IC50 read?
Answer: Its IC50 is under 20 µM.

Question: For `N=C(N)NCCC[C@H](NC(=O)c1sccc1NS(=O)(=O)c1cc2ccccc2s1)C(=O)O` [EG00291, (S)-2-{[3-(Benzo[b]thiophene-2-sulfonylamino)-thiophene-2-carbonyl]-amino}-5-guanidino-pentanoic acid], which IC50 is on record?
Answer: Its IC50 is under 20 µM.

Question: Which IC50 does the source give for `Cc1nc(S(=O)(=O)Nc2ccsc2C(=O)N[C@@H](CCCNC(=N)N)C(=O)O)cn1C` [EG00265, (S)-2-{[3-(1,2-Dimethyl-1H-imidazole-4-sulfonylamino)-thiophene-2-carbonyl]-amino}-5-guanidino-pentanoic acid] here?
Answer: The IC50 was under 20 µM.

Question: `Cc1noc(C)c1-c1cc2c(c(S(=O)(=O)Nc3ccsc3C(=O)N[C@@H](CCCNC(=N)N)C(=O)O)c1)OCC2` [EG00428, (S)-2-({3-[5-(3,5-Dimethyl-isoxazol-4-yl)-2,3-dihydro-benzofuran-7-sulfonyl-amino]-thiophene-2-carbonyl}-amino)-5-guanidino-pentanoic acid] was tested. Which IC50 did it give?
Answer: Its IC50 is under 20 µM.

Question: `N=C(N)NCCC[C@H](NC(=O)c1sccc1NS(=O)(=O)c1cccc(C#CCN)c1)C(=O)O` [EG00274, (S)-2-({3-[3-(3-Amino-prop-1-ynyl)-benzenesulfonylamino]-thiophene-2-carbonyl}-amino)-5-guanidino-pentanoic acid] was tested. Which IC50 did it give?
Answer: Its IC50 is under 20 µM.

Question: How did the IC50 turn out when `N=C(N)NCCC[C@H](NC(=O)c1sccc1NS(=O)(=O)c1cccc(N)c1)C(=O)O` [EG00174, (S)-2-{[3-(3-Amino-benzenesulfonylamino)-thiophene-2-carbonyl]-amino}-5-guanidino-pentanoic acid] was run?
Answer: The IC50 was under 20 µM.

Question: `N=C(N)NCCC[C@H](NC(=O)c1sccc1NS(=O)(=O)c1cccc(NCc2ccccn2)c1)C(=O)O` [EG00283, (S)-5-Guanidino-2-[(3-{3-[(pyridin-2-ylmethyl)-amino]-benzenesulfonylamino}-thiophene-2-carbonyl)-amino]-pentanoic acid] was tested. Which IC50 did it give?
Answer: Its IC50 is under 20 µM.

Question: For `Cc1noc(C)c1CNc1cccc(S(=O)(=O)Nc2ccsc2C(=O)N[C@@H](CCCNC(=N)N)C(=O)O)c1` [EG00317, (S)-2-[(3-{3-[(3,5-Dimethyl-isoxazol-4-ylmethyl)-amino]-benzenesulfonyl-amino}-thiophene-2-carbonyl)-amino]-5-guanidino-pentanoic acid], which IC50 is on record?
Answer: Its IC50 is under 20 µM.

What follows are compounds tested on DU145 cancer cells (assay: Cell-matrix adhesion (Innocyte ECM cell adhesion assay)). Conditions: concentrations from 10-100 μM.
Assay type: cell-based, Human
Experimental: as §1
Cell adhesion to extracellular matrix proteins (basement membrane protein complex, laminin I, collagen IV, fibronectin or vitronectin) was measured by the Innocyte ECM cell adhesion assay (Calbiochem). Cells were detached with a non-enzyme cell dissociation solution (Sigma), washed and resuspended in RPMI 1640 medium. Cells with or without peptidomimetic treatment were seeded at 3×10^4 cells per matrix-coated well of 96-well plates. After 1.5 h incubation, cells were washed with PBS. The attached cells were labelled with the green fluorescent dye calcein-AM and measured using a fluorescence plate reader at an excitation wavelength of 485 nm and an emission wavelength of 520 nm.

Question: `N=C(N)NCCC[C@H](NC(=O)c1sccc1NS(=O)(=O)c1ccc(N)cc1)C(=O)O` [EG00144, (S)-2-{[3-(4-Amino-benzenesulfonylamino)-thiophene-2-carbonyl]-amino}-5-guanidino-pentanoic acid] was tested. Which “inhibiting the adhesion of DU145 cancer cells to extracellular matrix proteins” value did it give?
Answer: The value was “effective”.

The compounds below were run on A549 cells (assay: Cell migration (chemotaxis transwell)). Conditions: concentrations from 10-100 μM.
Assay type: cell-based, Human
Experimental: as §1
(§2) Cell migration was measured in chemotaxis 24-transwell plates with collagen 1-coated inserts. The various concentrations of serum in RPMI 1640/0.1% BSA were placed in the bottom wells of the plates, while top inserts incorporating PET (polyethylene terephthalate) track-etched membranes with 8 micron pores (Becton Dickinson Biosciences) were placed over the bottom wells. Cells were trypsinised, washed and resuspended in RPMI 1640/0.1% BSA. 1.5×10^6 cells with or without peptide or peptidomimetic treatment as indicated were loaded into each top inserts, and the chemotaxis trans-well plates were incubated at 37° C. for 4 h. After the incubation, non-migrated cells on the top side of the trans-well membranes were removed, and migrated cells on the under side of the trans-well membranes were stained with the REASTAIN Quick-Diff kit (REAGENA). The stained cells from each well were counted in 4 fields at ×100 magnification using an eyepiece indexed graticule (100 grids).

Question: For `N=C(N)NCCC[C@H](NC(=O)c1sccc1NS(=O)(=O)c1ccc(N)cc1)C(=O)O` [EG00144, (S)-2-{[3-(4-Amino-benzenesulfonylamino)-thiophene-2-carbonyl]-amino}-5-guanidino-pentanoic acid], which “migration of A549 cells” value is on record?
Answer: Its value is “decreased migration”.

These compounds were tested on ACHN cells (assay: Cell migration (chemotaxis transwell)). Conditions: concentrations from 10-100 μM.
Assay type: cell-based, Human
Experimental: as §1, §2

Question: Which “migration of ACHN cells” value does the source give for `N=C(N)NCCC[C@H](NC(=O)c1sccc1NS(=O)(=O)c1ccc(N)cc1)C(=O)O` [EG00144, (S)-2-{[3-(4-Amino-benzenesulfonylamino)-thiophene-2-carbonyl]-amino}-5-guanidino-pentanoic acid] here?
Answer: The value was “decreased migration”.
